Results reported in patent US20130237582A1, “PHARMACEUTICAL COMBINATION OF PACLITAXEL AND A CDK INHIBITOR” (Piramal Enterprises Limited, priority 2010, published 2013).
Entries after “also recorded” stand apart in the source; their conditions may differ.

Assays:
pRbSer780 = assay: Western blot of cell cycle proteins in MCF-7; type: cell-based, human; settings: 1.5 μM, 3, 6, 9, 12 and 24 h
Description: (§1) MCF-7 cells were seeded in RPMI 1460 medium with 10% FCS in […] tissue culture flask and incubated for 24 h. These cells were treated with Compound A at 1.5 μM. At various time points viz. 3 h, 6 h, 9 h, 12 h and 24 h the cells were harvested (trypsinised) and lysed using lysis buffer. Protein content was estimated by Bradford method (Anal. Biochem., 1976, 72, 248-254). Lysate was applied to Sodium Dodecyl Sulphate-Polyacrylamide Gel Electrophoresis (SDS-PAGE) followed by Western blotting. Western blotting was done using specific antibodies to various cell cycle proteins viz. cyclin D1, CDK4, Rb and pRbSer780.

cyclin D1 = assay: Western blot of cell cycle proteins in MCF-7; type: cell-based, human; settings: 1.5 μM, 3, 6, 9, 12 and 24 h
Description: as §1

Rb = assay: Western blot of cell cycle proteins in MCF-7; type: cell-based, human; settings: 1.5 μM, 3, 6, 9, 12 and 24 h
Description: as §1

PARP = target: T1, PARP (Homo sapiens, UniProt P09874); assay: PARP enzyme activity measured by PAR polymers (Western blot), MDA-MB-468; type: cell-based; settings: 1.5 μM and 5 μM, 24 h, hydrochloride
T1 construct: endogenous in cells; host or cells: MDA-MB-231; MDA-MB-468
T1 sequence (P09874 2-1014 limits assumed): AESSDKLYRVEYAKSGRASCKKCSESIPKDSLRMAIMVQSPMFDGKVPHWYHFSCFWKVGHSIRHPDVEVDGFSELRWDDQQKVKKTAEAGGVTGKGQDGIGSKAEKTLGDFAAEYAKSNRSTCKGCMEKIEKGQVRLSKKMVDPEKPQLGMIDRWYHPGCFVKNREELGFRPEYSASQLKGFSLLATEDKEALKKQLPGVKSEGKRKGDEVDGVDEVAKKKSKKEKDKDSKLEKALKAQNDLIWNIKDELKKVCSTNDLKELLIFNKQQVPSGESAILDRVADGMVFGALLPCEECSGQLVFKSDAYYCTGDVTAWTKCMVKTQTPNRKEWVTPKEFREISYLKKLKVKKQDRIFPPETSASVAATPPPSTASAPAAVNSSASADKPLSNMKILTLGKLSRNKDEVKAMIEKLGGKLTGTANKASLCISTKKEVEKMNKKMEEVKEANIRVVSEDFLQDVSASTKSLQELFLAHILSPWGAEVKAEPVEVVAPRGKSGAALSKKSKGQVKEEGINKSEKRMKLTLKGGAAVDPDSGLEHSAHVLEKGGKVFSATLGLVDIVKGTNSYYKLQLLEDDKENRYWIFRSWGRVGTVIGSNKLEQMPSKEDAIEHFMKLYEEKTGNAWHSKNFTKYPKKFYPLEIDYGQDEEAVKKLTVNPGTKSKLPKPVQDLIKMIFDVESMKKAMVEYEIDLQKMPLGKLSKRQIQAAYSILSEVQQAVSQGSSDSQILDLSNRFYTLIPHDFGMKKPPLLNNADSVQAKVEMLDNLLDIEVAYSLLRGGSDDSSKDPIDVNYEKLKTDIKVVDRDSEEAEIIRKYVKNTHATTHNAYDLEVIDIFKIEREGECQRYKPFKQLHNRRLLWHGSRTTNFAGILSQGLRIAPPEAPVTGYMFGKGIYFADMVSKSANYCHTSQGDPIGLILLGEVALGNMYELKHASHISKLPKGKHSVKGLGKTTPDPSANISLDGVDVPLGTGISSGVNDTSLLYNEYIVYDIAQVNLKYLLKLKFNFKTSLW
Description: To study PARP enzyme activity, PAR polymer formation was measured. MDA-MB-231 and MDA-MB-468 cells were seeded in RPMI 1460 medium with 10% FCS in […] tissue culture flask and incubated for 24 h. These cells were treated at 1.5 μM and 5 μM of Compound A for 24 h. The cells were harvested (trypsinised) and lysed using lysis buffer. Western blotting (Molecular Cancer Therapeutics, 2007, 6, 918-925) was done with specific antibody to PAR.
Correlation of PARP activity and cell cycle proteins cyclin D1, total Rb and pRb 780 were studied in two TNBC cell lines viz. MDA-MB-468 and MDA-MB-231. MDA-MB-231 and MDA-MB-468 cells were seeded in RPMI 1460 medium with 10% FCS in […] tissue culture flask and incubated for 24 h. These cells were treated at 1.5 μM and 5 μM Compound A for 24 h. The cells were harvested (trypsinised) and lysed using lysis buffer. Western blotting was carried out (Molecular Cancer […], 2007, 6, 918-925) using specific antibody to PAR, PARP, cyclin D1, CDK4 and pRb Ser 780.

[1] = tested on: MCF-7, BT-549 and MDA-MB-231 cell lines; assay: Wound healing assay (cell migration); type: cell-based, human; settings: 1 μM and 3 μM; 24 h
Description: The wound-healing assay is simple, inexpensive, and one of the earliest developed methods to study directional cell migration in vitro. This method mimics cell migration during wound healing in vivo.
Protocol: • 1. MCF-7 cells were seeded in RPMI 1460 medium with 10% FCS in […] tissue culture flask and incubated for 24 h. • 2. The cells were trypsinized and seeded at a density of (0.5−2.0)×10^6 per well in a sterile 6 well plate. • 3. The plate was incubated for about 16 h in humidified CO2 incubator (5% CO2) at 37° C. under ambient oxygen levels. […] The required number of cells for a confluent monolayer depends on both the particular cell type and size of dishes. • 4. The cell monolayer in a straight line was scraped evenly to create a “scratch” with a pipette tip. The first image of the scratches was captured before addition of the compound. • 5. Compound A was added at concentrations of 1 μM and 3 μM. • 6. The plates were then kept in the incubator for further incubation. The time frame for incubation was determined empirically for the particular cell type used. • 7. After the incubation, the dish was placed under a phase contrast microscope (Zeiss Axio Observer, Germany), reference point was matched, the photographed regions of the first image were aligned and the second image was captured. For each image distances between one side of the scratch and the other were measured. […]

MDA-MB-231 = assay: Cell cycle progression and apoptosis by flow cytometry (sub-G1); type: cell-based, human; settings: for % Apoptosis: 4.5 μM
Description: Time dependent effect of Compound A on cell cycle progression and apoptosis was evaluated in two breast cancer cell lines. The asynchronous human breast cancer cell lines MCF-7 (Her low, ER+, PR+, BRCA+/−allelic loss) and MDA-MB-231 cells were seeded in […] tissue culture flask at a density of 0.5×10^6 cells per flask in RPMI 1460 with 10% FCS. After 24 h, cells were treated with 4.5 μM of Compound A for 0, 24, 48 and 72 h. Both detached and adherent cells were harvested (trypsinised) at different time points as mentioned in Table 3. After washing in phosphate buffered saline (PBS), cells were fixed in ice-cold 70% ethanol and stored at −20° C. until further analysis.
Before analysis, cells were washed twice with PBS to remove the fixative and re-suspended in PBS containing 50 μg/mL propidium iodide and 50 μg/mL RNaseA. After incubation at room temperature (20-35° C.) for 20 min, cells were analyzed using flow cytometry. A Becton Dickinson FACS Calibur flow cytometer (BD, USA) was used for these studies. The argon ion laser set at 488 nm was used as an excitation source. Cells with DNA content between 2n and 4n were designated as being in G1, S and G2/M phases of the cell cycle, as defined by the level of red fluorescence. […] The number of cells in each cell cycle compartment was expressed as a percentage of the total number of cells present. The results are shown in Table 3 and graphically presented in FIG. 3A (MCF-7 cell lines) and FIG. 3B (MDA-MB-231 cell lines).
Comparison of the effect of Compound A and PARP inhibitor BSI-201 (Iniparib developed by Sanofi-Aventis. BSI-201 is prepared in-house) on cell cycle progression and apoptosis was evaluated in two TNBC cell lines. The asynchronous human TNBC cell lines MDA-MB-231 and MDA-MB-468 were seeded in […] tissue culture flask at a density of 0.5×10^6 cells per flask in RPMI 1460 with 10% FCS. After 24 h, cells were treated either with 1.5 and 3.0 μM of Compound A or 50 μM of PARP inhibitor BSI-201 for 72 h. After the incubation cells were harvested (trypsinised) and processed as given in example 6.

Compound: CN1CC[C@@H](c2c(O)cc(O)c3c(=O)cc(-c4ccccc4Cl)oc23)[C@@H]1CO.Cl [Compound A, (+)-trans-2-(2-Chloro-phenyl)-5,7-dihydroxy-8-(2-hydroxymethyl-1-methyl-pyrrolidin-3-yl)-chromen-4-one hydrochloride]
- pRb expression (pRbSer780): decrease from 6 h onwards and significantly at 12 h
- Cyclin D1 expression (cyclin D1): decrease from 6 h onwards and significantly at 12 h
- total Rb (Rb): no significant change in total Rb except at 24 h
- PARP enzyme activity (PAR polymer formation) (PARP): the formation of PAR polymers is not inhibited; also recorded: no change in the PAR polymer formation
- cell migration (wound healing) [1]: potent anti migratory effect
- % apoptosis at 72 h (MDA-MB-231; 1.5 μM, 72 h): 27.45%
- % apoptosis at 72 h (MDA-MB-231; 3 μM, 72 h): 41.53%
- % Apoptosis (MDA-MB-231; 0 h): 1%
- % Apoptosis (MDA-MB-231; 24 h): 45%
- % Apoptosis (MDA-MB-231; 48 h): 85%
- % Apoptosis (MDA-MB-231; 72 h): 85%
